Measurements reported in patent US8710065B2, “Tricyclic inhibitors of kinases” (AbbVie Inc., priority 2011, dated 2014).

The molecules below were run against T1, GST-tagged-Wee1 kinase (Homo sapiens, UniProt P30291) (assay: Wee1 time-resolved fluorescence equilibrium binding assay (displacement of Oregon Green-labeled ATP-competitive kinase probe)). Conditions: read-out: Wee-1 inhibition (Ki).
T1 construct: purchased Carnabio (Carna Biosciences) 05-177
T1 sequence (P30291 whole entry): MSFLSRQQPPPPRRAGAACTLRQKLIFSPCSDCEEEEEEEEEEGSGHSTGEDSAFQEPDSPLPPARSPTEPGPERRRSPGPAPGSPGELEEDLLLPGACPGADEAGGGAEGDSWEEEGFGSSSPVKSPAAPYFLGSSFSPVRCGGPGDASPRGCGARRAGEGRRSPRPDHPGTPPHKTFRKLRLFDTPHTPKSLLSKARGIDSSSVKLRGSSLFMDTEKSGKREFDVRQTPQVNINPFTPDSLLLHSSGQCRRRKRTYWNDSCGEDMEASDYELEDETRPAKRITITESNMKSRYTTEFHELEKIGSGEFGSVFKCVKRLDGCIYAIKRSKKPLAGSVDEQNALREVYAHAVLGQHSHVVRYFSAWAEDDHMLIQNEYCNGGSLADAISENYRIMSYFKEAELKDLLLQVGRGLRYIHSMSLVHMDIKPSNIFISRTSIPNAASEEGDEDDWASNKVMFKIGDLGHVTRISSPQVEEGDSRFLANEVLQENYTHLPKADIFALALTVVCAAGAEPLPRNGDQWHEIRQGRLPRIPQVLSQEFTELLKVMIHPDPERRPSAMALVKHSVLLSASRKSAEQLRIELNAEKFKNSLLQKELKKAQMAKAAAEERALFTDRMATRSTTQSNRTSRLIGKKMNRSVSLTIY
Outline: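 Ki values derive from competitive displacement, under equilibrium, of a fast-reversible ATP-site Oregon Green kinase probe from GST-tagged Wee1, detected by time-resolved fluorescence.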
Work on `O=c1c2cnc(Nc3ccc(N4CCN5CCCCC5C4)cc3)nc2n2ccnc2n1-c1ccccc1Cl` (stereo not drawn) [Example 208, 6-(2-chlorophenyl)-2-{[4-(octahydro-2H-pyrido[1,2-a]pyrazin-2-yl)phenyl]amino}imidazo[1,2-a]pyrimido[5,4-e]pyrimidin-5(6H)-one] yielded a Ki of less than 10 nM. Work on `CN1Cc2cc(Nc3ncc4c(=O)n(-c5c(F)cccc5Cl)c5nccn5c4n3)ccc2C1(C)C` [Example 209, 6-(2-chloro-6-fluorophenyl)-2-[(1,1,2-trimethyl-2,3-dihydro-1H-isoindol-5-yl)amino]imidazo[1,2-a]pyrimido[5,4-e]pyrimidin-5(6H)-one] yielded a Ki of less than 10 nM. Molecule `CN1C(C)(C)c2ccc(Nc3ncc4c(=O)n(-c5c(F)cccc5Cl)c5nccn5c4n3)cc2C1(C)C` [Example 210, 6-(2-chloro-6-fluorophenyl)-2-[(1,1,2,3,3-pentamethyl-2,3-dihydro-1H-isoindol-5-yl)amino]imidazo[1,2-a]pyrimido[5,4-e]pyrimidin-5(6H)-one] has a Ki of less than 10 nM. Work on `O=c1c2cnc(Nc3ccc(N4CCN(C5COC5)CC4)cc3)nc2n2ccnc2n1-c1ccccc1Cl` [Example 211, 6-(2-chlorophenyl)-2-({4-[4-(oxetan-3-yl)piperazin-1-yl]phenyl}amino)imidazo[1,2-a]pyrimido[5,4-e]pyrimidin-5(6H)-one] yielded a Ki of 10 to 100 nM. Molecule `CN1Cc2cc(Nc3ncc4c(=O)n(-c5c(Cl)cc(F)cc5Cl)c5nccn5c4n3)ccc2C(C)(C)C1` [Example 212, 6-(2,6-dichloro-4-fluorophenyl)-2-[(2,4,4-trimethyl-1,2,3,4-tetrahydroisoquinolin-7-yl)amino]imidazo[1,2-a]pyrimido[5,4-e]pyrimidin-5(6H)-one] has a Ki of less than 10 nM. `O=c1cn[nH]c2ccc(Nc3ncc4c(=O)n(-c5c(Cl)cccc5Cl)c5nccn5c4n3)cc12` [Example 213, 6-(2,6-dichlorophenyl)-2-[(4-oxo-1,4-dihydrocinnolin-6-yl)amino]imidazo[1,2-a]pyrimido[5,4-e]pyrimidin-5(6H)-one] gave a Ki of less than 10 nM. `CC(=O)N1CCN(c2ccc(Nc3ncc4c(=O)n(-c5c(Cl)cccc5Cl)c5nccn5c4n3)cc2)CC1` [Example 214, 2-{[4-(4-acetylpiperazin-1-yl)phenyl]amino}-6-(2,6-dichlorophenyl)imidazo[1,2-a]pyrimido[5,4-e]pyrimidin-5(6H)-one] was tested, and the Ki was less than 10 nM. Work on `CN(C)C1CCN(c2ccc(Nc3ncc4c(=O)n(-c5c(Cl)cccc5Cl)c5nccn5c4n3)cc2)CC1` [Example 215, 6-(2,6-dichlorophenyl)-2-({4-[4-(dimethylamino)piperidin-1-yl]phenyl}amino)imidazo[1,2-a]pyrimido[5,4-e]pyrimidin-5(6H)-one] yielded a Ki of less than 10 nM. In the case of `COC(=O)c1ccc(Nc2ncc3c(=O)n(-c4c(Cl)cccc4Cl)c4nccn4c3n2)cc1` [Example 216, methyl 4-{[6-(2,6-dichlorophenyl)-5-oxo-5,6-dihydroimidazo[1,2-a]pyrimido[5,4-e]pyrimidin-2-yl]amino}benzoate], the Ki is reported as less than 10 nM. `O=c1c2cnc(Nc3cc(Cl)c(N4CCNCC4)c(Cl)c3)nc2n2ccnc2n1-c1ccccc1Cl` [Example 217, 6-(2-chlorophenyl)-2-{[3,5-dichloro-4-(piperazin-1-yl)phenyl]amino}imidazo[1,2-a]pyrimido[5,4-e]pyrimidin-5(6H)-one] showed a Ki of 10 to 100 nM. In the case of `O=c1c2cnc(Nc3ccc(-c4cn5ccccc5n4)cc3)nc2n2ccnc2n1-c1ccccc1Cl` [Example 218, 6-(2-chlorophenyl)-2-{[4-(imidazo[1,2-a]pyridin-2-yl)phenyl]amino}imidazo[1,2-a]pyrimido[5,4-e]pyrimidin-5(6H)-one], the Ki is reported as 10 to 100 nM. `CC(C)N1C(=O)CSC1c1ccc(Nc2ncc3c(=O)n(-c4ccccc4Cl)c4nccn4c3n2)cc1` (stereo not drawn) [Example 219, 6-(2-chlorophenyl)-2-({4-[4-oxo-3-(propan-2-yl)-1,3-thiazolidin-2-yl]phenyl}amino)imidazo[1,2-a]pyrimido[5,4-e]pyrimidin-5(6H)-one] was tested, and the Ki was less than 10 nM. With `O=c1c2cnc(Nc3ccc(-c4cn5c(n4)SCC5)cc3)nc2n2ccnc2n1-c1ccccc1Cl` [Example 220, 6-(2-chlorophenyl)-2-{[4-(2,3-dihydroimidazo[2,1-b][1,3]thiazol-6-yl)phenyl]amino}imidazo[1,2-a]pyrimido[5,4-e]pyrimidin-5(6H)-one] the Ki was 10 to 100 nM. With `CC1SC(c2ccc(Nc3ncc4c(=O)n(-c5ccccc5Cl)c5nccn5c4n3)cc2)NC1=O` (stereo not drawn) [Example 221, 6-(2-chlorophenyl)-2-{[4-(5-methyl-4-oxo-1,3-thiazolidin-2-yl)phenyl]amino}imidazo[1,2-a]pyrimido[5,4-e]pyrimidin-5(6H)-one] the Ki was 10 to 100 nM. With `O=c1c2cnc(Nc3ccc(-c4cn5ccsc5n4)cc3)nc2n2ccnc2n1-c1ccccc1Cl` [Example 222, 6-(2-chlorophenyl)-2-{[4-(imidazo[2,1-b][1,3]thiazol-6-yl)phenyl]amino}imidazo[1,2-a]pyrimido[5,4-e]pyrimidin-5(6H)-one] the Ki was 10 to 100 nM. `O=c1[nH][nH]c2c(-c3ccc(Nc4ncc5c(=O)n(-c6ccccc6Cl)c6nccn6c5n4)cc3)cccc12` [Example 223, 6-(2-chlorophenyl)-2-{[4-(3-oxo-2,3-dihydro-1H-indazol-7-yl)phenyl]amino}imidazo[1,2-a]pyrimido[5,4-e]pyrimidin-5(6H)-one] was tested, and the Ki was less than 10 nM. For `O=c1c2cnc(Nc3ccc4c(c3)CN(CC(F)F)CC43CC3)nc2n2ccnc2n1-c1c(F)cccc1Cl` [Example 224, 6-(2-chloro-6-fluorophenyl)-2-{[2′-(2,2-difluoroethyl)-2′,3′-dihydro-1′H-spiro[cyclopropane-1,4′-isoquinolin]-7′-yl]amino}imidazo[1,2-a]pyrimido[5,4-e]pyrimidin-5(6H)-one], the Ki was less than 10 nM. Work on `O=c1c2cnc(Nc3ccc4c(c3)CN(CCF)CC43CC3)nc2n2ccnc2n1-c1c(F)cccc1Cl` [Example 225, 6-(2-chloro-6-fluorophenyl)-2-{[2′-(2-fluoroethyl)-2′,3′-dihydro-1′H-spiro[cyclopropane-1,4′-isoquinolin]-7′-yl]amino}imidazo[1,2-a]pyrimido[5,4-e]pyrimidin-5(6H)-one] yielded a Ki of less than 10 nM. With `CCN(CC)C1Cc2ccc(Nc3ncc4c(=O)n(-c5c(F)cccc5Cl)c5nccn5c4n3)cc2C1` (stereo not drawn) [Example 226, 6-(2-chloro-6-fluorophenyl)-2-{[2-(diethylamino)-2,3-dihydro-1H-inden-5-yl]amino}imidazo[1,2-a]pyrimido[5,4-e]pyrimidin-5(6H)-one] the Ki was less than 10 nM. Molecule `O=c1c2cnc(Nc3ccc4c(c3)CC(NC3CC3)C4)nc2n2ccnc2n1-c1c(F)cccc1Cl` (stereo not drawn) [Example 227, 6-(2-chloro-6-fluorophenyl)-2-{[2-(cyclopropylamino)-2,3-dihydro-1H-inden-5-yl]amino}imidazo[1,2-a]pyrimido[5,4-e]pyrimidin-5(6H)-one] has a Ki of less than 10 nM. `O=c1c2cnc(Nc3ccc4c(c3)CNCC43CC3)nc2n2ccnc2n1-c1c(F)cccc1Cl` [Example 228, 6-(2-chloro-6-fluorophenyl)-2-(2′,3′-dihydro-1′H-spiro[cyclopropane-1,4′-isoquinolin]-7′-ylamino)imidazo[1,2-a]pyrimido[5,4-e]pyrimidin-5(6H)-one] gave a Ki of less than 10 nM. Work on `O=c1c2cnc(Nc3ccc(N4CCC(N5CCCCC5)CC4)cc3)nc2n2ccnc2n1-c1ccccc1Cl` [Example 229, 2-{[4-(1,4′-bipiperidin-1′-yl)phenyl]amino}-6-(2-chlorophenyl)imidazo[1,2-a]pyrimido[5,4-e]pyrimidin-5(6H)-one] yielded a Ki of less than 10 nM. `CN(C)[C@@H]1CCN(c2ccc(Nc3ncc4c(=O)n(-c5ccccc5Cl)c5nccn5c4n3)cc2)C1` [Example 230, 6-(2-chlorophenyl)-2-({4-[(3R)-3-(dimethylamino)pyrrolidin-1-yl]phenyl}amino)imidazo[1,2-a]pyrimido[5,4-e]pyrimidin-5(6H)-one] was tested, and the Ki was less than 10 nM. `O=c1c2cnc(Nc3ccc(N4CCCC(C(F)(F)F)C4)cc3)nc2n2ccnc2n1-c1ccccc1Cl` (stereo not drawn) [Example 231, 6-(2-chlorophenyl)-2-({4-[3-(trifluoromethyl)piperidin-1-yl]phenyl}amino)imidazo[1,2-a]pyrimido[5,4-e]pyrimidin-5(6H)-one] was tested, and the Ki was 10 to 100 nM. `N#CCCN1CCN(c2ccc(Nc3ncc4c(=O)n(-c5ccccc5Cl)c5nccn5c4n3)cc2)CC1` [Example 232, 3-[4-(4-{[6-(2-chlorophenyl)-5-oxo-5,6-dihydroimidazo[1,2-a]pyrimido[5,4-e]pyrimidin-2-yl]amino}phenyl)piperazin-1-yl]propanenitrile] was tested, and the Ki was 10 to 100 nM. `N#CCCN(c1ccc(Nc2ncc3c(=O)n(-c4ccccc4Cl)c4nccn4c3n2)cc1)C1CC1` [Example 233, 3-[(4-{[6-(2-chlorophenyl)-5-oxo-5,6-dihydroimidazo[1,2-a]pyrimido[5,4-e]pyrimidin-2-yl]amino}phenyl)(cyclopropyl)amino]propanenitrile] showed a Ki of 10 to 100 nM. `CN(C)CCNc1ccc(Nc2ncc3c(=O)n(-c4ccccc4Cl)c4nccn4c3n2)cc1` [Example 234, 6-(2-chlorophenyl)-2-[(4-{[2-(dimethylamino)ethyl]amino}phenyl)amino]imidazo[1,2-a]pyrimido[5,4-e]pyrimidin-5(6H)-one] was tested, and the Ki was less than 10 nM. Molecule `NC(=O)C1CCN(c2ccc(Nc3ncc4c(=O)n(-c5ccccc5Cl)c5nccn5c4n3)cc2)CC1` [Example 235, 1-(4-{[6-(2-chlorophenyl)-5-oxo-5,6-dihydroimidazo[1,2-a]pyrimido[5,4-e]pyrimidin-2-yl]amino}phenyl)piperidine-4-carboxamide] has a Ki of less than 10 nM. Work on `O=c1c2cnc(Nc3ccc(N4CCC(N5CCOCC5)CC4)cc3)nc2n2ccnc2n1-c1ccccc1Cl` [Example 236, 6-(2-chlorophenyl)-2-({4-[4-(morpholin-4-yl)piperidin-1-yl]phenyl}amino)imidazo[1,2-a]pyrimido[5,4-e]pyrimidin-5(6H)-one] yielded a Ki of less than 10 nM. Work on `CN(C)C1CCN(C(=O)c2ccc(Nc3ncc4c(=O)n(-c5c(Cl)cccc5Cl)c5nccn5c4n3)cc2)CC1` [Example 237, 6-(2,6-dichlorophenyl)-2-[(4-{[4-(dimethylamino)piperidin-1-yl]carbonyl}phenyl)amino]imidazo[1,2-a]pyrimido[5,4-e]pyrimidin-5(6H)-one] yielded a Ki of less than 10 nM.
